In patent US20070259959A1, “Ppar Agonists for the Treatment of Hcv Infection” (priority 2003, published 2007):

System: HCV
Assay: Inhibition of HCV infection of cultured human hepatocytes (quantitative RT-PCR of HCV RNA)
Assay type: cell-based
Details: cultured human hepatocytes infected with infectious human serum; fenofibric acid tested at 50 μM and 500 μM; HCV RNA copies/350,000 cells four days after infection; 0.5% DMSO
Method: Isolated human hepatocytes from surgical liver resection were seeded in 24 well microplates at the density of 3×10^5 cells/well. Cells were allowed to attach and recover 24 hours and then medium was replaced with a fresh one containing different concentrations of fenofibric acid (50 μM and 500 μM). Hepatocytes were incubated 24 hours with the indicated amounts of fenofibric acid, then medium was replaced with fresh one containing the same amounts of fenofibric acid and a fixed amount (100 μl) of an infectious human serum from a patient chronically infected with HCV. Cells were incubated 18 hours with the virus to allow infection, then washed and incubated for four days. Total RNA was extracted and viral replication was measured by quantitative RT-PCR.
Typically, 10^4 to 10^5 copies of genomes per well are detected after four days from infection. To be sure that the measured viral RNA derived from active replication, a small molecule inhibitor of the viral replicase was included as a positive control.
Viral replication was measured on total RNA by quantitative PCR and expressed as number of HCV copies/350,000 cells. The experiment was performed in triplicate wells and values are shown with standard deviations. Fenofibric acid was dissolved in DMSO and tested at 50 μM and 500 μM. […]

CC(C)(Oc1ccc(C(=O)c2ccc(Cl)cc2)cc1)C(=O)O [fenofibric acid]
reduction of HCV infectivity: up to 90%
